“And” between values parts separate entries of the source, which are not always exact repeats. Identical values can stand only once. Toxic doses and inconclusive results are not listed. Square brackets hold non-standard residues; d marks the D form. Peptide text beside a SMILES is read from it. * marks the point of attachment. ξ: configuration not given here. Cbz = O=C(OCc1ccccc1)*; ξNle = CCCCC(N)C(=O)O

The record followed here is PubChem BioAssay AID248 (DTP/NCI, 2004).

This assay deals with L1210 leukemia ip in BDF1 mice, survival T/C. The assay is described as follows: NCI In Vivo Anticancer Drug Screen. Data for tumor model L1210 Leukemia (intraperitoneal) in B6D2F1 (BDF1) mice. The conditions noted are these: endpoint: mean survival time, higher = longer survival. An outline of the steps: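 Transplantable tumor model; survival measured in treated vs vehicle control mice. Value = treated/control.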

Where [1] appears, read: dose: 100.0 mg/kg/injection, schedule: Q04DX003 (ip), vehicle: Klucel (hydroxypropylcellulose) (HPC).
The mark [2] stands for this setting: dose: 200.0 mg/kg/injection, schedule: Q04DX003 (ip), vehicle: Klucel (hydroxypropylcellulose) (HPC).
Setting [3] is: dose: 400.0 mg/kg/injection, schedule: Q04DX003 (ip), vehicle: Klucel (hydroxypropylcellulose) (HPC).
The mark [4] stands for this setting: dose: 100.0 mg/kg/injection, schedule: Q01DX009 (ip), vehicle: Klucel (hydroxypropylcellulose) (HPC).
The mark [5] stands for this setting: dose: 200.0 mg/kg/injection, schedule: Q01DX009 (ip), vehicle: Klucel (hydroxypropylcellulose) (HPC).
Where [6] appears, read: dose: 400.0 mg/kg/injection, schedule: Q01DX009 (ip), vehicle: Klucel (hydroxypropylcellulose) (HPC).
The mark [7] stands for this setting: dose: 100.0 mg/kg/injection, schedule: Q01DX001 (ip), vehicle: carboxymethylcellulose (CMC).
Setting [8] is: dose: 200.0 mg/kg/injection, schedule: Q01DX001 (ip), vehicle: carboxymethylcellulose (CMC).
[9] abbreviates: dose: 400.0 mg/kg/injection, schedule: Q01DX001 (ip), vehicle: carboxymethylcellulose (CMC).
[10] abbreviates: dose: 100.0 mg/kg/injection, schedule: Q04DX003 (ip), vehicle: saline with Tween-80.
The mark [11] stands for this setting: dose: 200.0 mg/kg/injection, schedule: Q04DX003 (ip), vehicle: saline with Tween-80.
Where [12] appears, read: dose: 400.0 mg/kg/injection, schedule: Q04DX003 (ip), vehicle: saline with Tween-80.
[13] abbreviates: dose: 50.0 mg/kg/injection, schedule: Q01DX009 (ip), vehicle: saline with Tween-80.
The mark [14] stands for this setting: dose: 100.0 mg/kg/injection, schedule: Q01DX009 (ip), vehicle: saline with Tween-80.
[15] abbreviates: dose: 200.0 mg/kg/injection, schedule: Q01DX009 (ip), vehicle: saline with Tween-80.
The mark [16] stands for this setting: dose: 100.0 mg/kg/injection, schedule: Q01DX001 (ip), vehicle: saline with Tween-80.
[17] abbreviates: dose: 200.0 mg/kg/injection, schedule: Q01DX001 (ip), vehicle: saline with Tween-80.
[18] abbreviates: dose: 400.0 mg/kg/injection, schedule: Q01DX001 (ip), vehicle: saline with Tween-80.
Where [19] appears, read: dose: 100.0 mg/kg/injection, schedule: Q01DX009 (ip), vehicle: saline.
Where [20] appears, read: dose: 100.0 mg/kg/injection, schedule: Q04DX003 (ip), vehicle: saline.
Setting [21] is: dose: 200.0 mg/kg/injection, schedule: Q01DX009 (ip), vehicle: saline.
[22] abbreviates: dose: 200.0 mg/kg/injection, schedule: Q04DX003 (ip), vehicle: saline.
The mark [23] stands for this setting: dose: 400.0 mg/kg/injection, schedule: Q01DX009 (ip), vehicle: saline.
Setting [24] is: dose: 400.0 mg/kg/injection, schedule: Q04DX003 (ip), vehicle: saline.

`CN(C)C(=S)Oc1ccc(Cl)cc1S(=O)(=O)F`: the T/C reads like this: under setting [1], 106 % of control; under setting [2], 101 % of control; under setting [3], 102 % of control.
As to `C=CC(C(=O)OCC)C(O)CCC` (stereo unspecified), the T/C reads like this: (dose: 50.0 mg/kg/injection, schedule: Q01DX009 (ip), vehicle: Klucel (hydroxypropylcellulose) (HPC)) 104 % of control; under setting [4], 95 % of control; under setting [1], 95 % of control; under setting [5], 101 % of control and 108 % of control; under setting [2], 94 % of control; under setting [6], 100 % of control. Moreover, under setting [3], the T/C was 101 % of control.
On to `NNc1c(Cl)c(F)c(Cl)c(F)c1Cl`, for which the T/C under setting [7] is 104 % of control, the T/C under setting [8] is 97 % of control and the T/C under setting [9] is 104 % of control.
Regarding `Cc1cc2c(cc1C)[n+]([O-])c1c(=O)[nH]c(=O)nc-1n2CC(O)C(O)C(O)CO` (stereo unspecified), the T/C is, setting by setting: (dose: 100.0 mg/kg/injection, schedule: Q04DX002 (ip), vehicle: saline with Tween-80) 98 % of control; (dose: 200.0 mg/kg/injection, schedule: Q04DX002 (ip), vehicle: saline with Tween-80) 95 % of control.
As for `COc1ccc(O)c(C2(O)OC(=O)c3c(OC)cccc32)c1` (stereo unspecified), the T/C by setting is: under setting [7], 103 % of control and 111 % of control; (dose: 100.0 mg/kg/injection, schedule: Q01DX009 (ip), vehicle: carboxymethylcellulose (CMC)) 100 % of control and 89 % of control; (dose: 100.0 mg/kg/injection, schedule: Q04DX002 (ip), vehicle: carboxymethylcellulose (CMC)) 102 % of control and 113 % of control; (dose: 100.0 mg/kg/injection, schedule: Q04DX003 (ip), vehicle: carboxymethylcellulose (CMC)) 95 % of control and 100 % of control; under setting [8], 94 % of control and 106 % of control; (dose: 200.0 mg/kg/injection, schedule: Q01DX009 (ip), vehicle: carboxymethylcellulose (CMC)) 104 % of control and 89 % of control. In addition, the T/C was 97 % of control (dose: 200.0 mg/kg/injection, schedule: Q04DX002 (ip), vehicle: carboxymethylcellulose (CMC)); 94 % of control and 100 % of control (dose: 200.0 mg/kg/injection, schedule: Q04DX003 (ip), vehicle: carboxymethylcellulose (CMC)); 94 % of control and 103 % of control under setting [9]; 97 % of control and 98 % of control (dose: 400.0 mg/kg/injection, schedule: Q04DX002 (ip), vehicle: carboxymethylcellulose (CMC)); 95 % of control and 90 % of control (dose: 400.0 mg/kg/injection, schedule: Q04DX003 (ip), vehicle: carboxymethylcellulose (CMC)).
With `CC(C)OC(=O)C(NC=O)C(C)(C)S` (stereo unspecified), the T/C under setting [10] is 93 % of control, the T/C under setting [11] is 102 % of control and the T/C under setting [12] is 97 % of control.
Turning to `O=C(NC1CCCC1O)c1ccccc1` (stereo unspecified), the T/C was 95 % of control under setting [13], 95 % of control under setting [14] and 98 % of control under setting [15].
For `CC1(C(=O)O)C2C3C=CC(C3)C21` (stereo unspecified), the T/C runs as follows: under setting [16], 97 % of control; under setting [17], 93 % of control; under setting [18], 92 % of control.
As to `CC(C)(C)C#C[P+](C#CC(C)(C)C)(Cc1ccccc1)c1ccccc1`, the T/C is 99 % of control (dose: 12.5 mg/kg/injection, schedule: Q01DX009 (ip), vehicle: saline); 98 % of control (dose: 12.5 mg/kg/injection, schedule: Q04DX003 (ip), vehicle: saline); 94 % of control (dose: 25.0 mg/kg/injection, schedule: Q01DX009 (ip), vehicle: saline); 106 % of control (dose: 25.0 mg/kg/injection, schedule: Q04DX003 (ip), vehicle: saline); 117 % of control (dose: 50.0 mg/kg/injection, schedule: Q04DX003 (ip), vehicle: saline).
For `Cc1ncsc1CCO`, the T/C is 98 % of control under setting [16], 102 % of control under setting [17] and 94 % of control under setting [18].
As for `CCCCCCCCCCCCCCCCN(C(=S)c1ccccc1)c1ccccc1`, the T/C by setting is: under setting [4], 89 % of control; under setting [1], 104 % of control; under setting [5], 90 % of control; under setting [2], 94 % of control; under setting [6], 87 % of control; under setting [3], 96 % of control.
As to `COC1OC(COC(=O)c2ccccc2)C(OS(=O)(=O)c2ccc(C)cc2)C1OCc1ccccc1` (stereo unspecified), the T/C is, setting by setting: (dose: 50.0 mg/kg/injection, schedule: Q01DX001 (ip), vehicle: carboxymethylcellulose (CMC)) 98 % of control; under setting [7], 93 % of control; under setting [8], 95 % of control; under setting [9], 95 % of control.
In the case of `Cc1ccc(-c2cc(-c3ccccc3)no2)cc1`, the T/C runs as follows: under setting [4], 97 % of control; under setting [1], 102 % of control; under setting [5], 95 % of control; under setting [2], 102 % of control; under setting [6], 95 % of control; under setting [3], 93 % of control.
As for `COc1ccc(NC(=O)Nc2cc(C(F)(F)F)ccc2Cl)cc1`, the T/C under setting [10] was 88 % of control, the T/C under setting [11] is 91 % of control and the T/C under setting [12] is 86 % of control.
For `Oc1cc(O)c2c(c1)OC(O)(c1ccc(O)c(O)c1)C(O)O2` (stereo unspecified) (tested in a mixture with another compound), the T/C was 104 % of control under setting [13], 95 % of control under setting [14] and 102 % of control under setting [15].
With `CC(=O)CC(=O)NC1CCCC1`, the T/C is, setting by setting: under setting [4], 103 % of control; under setting [1], 100 % of control; under setting [5], 100 % of control; under setting [2], 100 % of control; under setting [6], 100 % of control; under setting [3], 100 % of control.
Consider `O=C1NC(c2ccccc2)(c2ccccc2)C(=O)N1CC1CO1` (stereo unspecified), for which the T/C by setting is: under setting [19], 100 % of control; under setting [20], 103 % of control; under setting [21], 91 % of control; under setting [22], 102 % of control; under setting [23], 93 % of control; under setting [24], 97 % of control.
As for `O=C1Nc2ccccc2CCc2ccccc21`, the T/C reads like this: under setting [19], 87 % of control; under setting [20], 94 % of control; under setting [21], 100 % of control; under setting [22], 100 % of control; under setting [23], 89 % of control; under setting [24], 96 % of control.
On to `CC(C)(Cl)CCl`, for which the T/C under setting [14] is 106 % of control, the T/C under setting [10] is 101 % of control, the T/C under setting [15] was 89 % of control and the T/C under setting [11] is 98 % of control.
Consider `COC(=O)CC(C(=O)OC)N1CC1` (stereo unspecified), for which the T/C (dose: 75.0 mg/kg/injection, schedule: Q01DX001 (ip), vehicle: carboxymethylcellulose (CMC)) was 101 % of control.
Regarding `NC(CSC(c1ccccc1)(c1ccccc1)c1ccc(CO)cc1)C(=O)O` (stereo unspecified), the T/C is 150 % of control and 157 % of control under setting [23]; 168 % of control (dose: 600.0 mg/kg/injection, schedule: Q01DX009 (ip), vehicle: saline).
`O=C(N/N=C\c1ccc(O)cc1O)c1ccco1`: the T/C is 90 % of control (dose: 100.0 mg/kg/injection, schedule: Q01DX001 (ip), vehicle: other); 93 % of control (dose: 200.0 mg/kg/injection, schedule: Q01DX001 (ip), vehicle: other); 96 % of control (dose: 400.0 mg/kg/injection, schedule: Q01DX001 (ip), vehicle: other).
Turning to `CCC(C)CNCCO` (stereo unspecified), the T/C was 92 % of control (dose: 50.0 mg/kg/injection, schedule: Q01DX009 (ip), vehicle: saline); 100 % of control under setting [19]; 103 % of control under setting [21].
Regarding `CCCCC(NC(=O)OCc1ccccc1)C(=O)NCC(=O)OCC` (stereo unspecified) (Cbz-[ξNle]-Gly-OEt), the T/C under setting [13] is 97 % of control, the T/C under setting [14] is 97 % of control and the T/C under setting [15] is 104 % of control.
As for `Cn1cncc1CC1COC(=O)C1C(O)c1ccccc1` (stereo unspecified), the T/C is 108 % of control (dose: 100.0 mg/kg/injection, schedule: Q01DX001 (ip), vehicle: saline) and 107 % of control (dose: 200.0 mg/kg/injection, schedule: Q01DX001 (ip), vehicle: saline).
